Literature values as cited in patent publication US20260144756A1 (US NANO FOOD AND DRUG INC, priority 2022, published 2026).

Settings: in vivo

In the case of `CC(C)(Oc1ccc(C(=O)c2ccc(Cl)cc2)cc1)C(=O)O` [fenofibric acid], the “elimination / terminal half-life” value is given as “about 20 hours”.
